The text below walks through data of paper PMC12079242, “Design, Synthesis, Biological Evaluation, and Molecular Docking Studies of Novel 1,3,4-Thiadiazole Derivatives Targeting Both Aldose Reductase and α-Glucosidase for Diabetes Mellitus” (ACS Omega, 2025).

Some results are limits rather than exact numbers.

In data set [1] the target is α-Glucosidase from Saccharomyces cerevisiae. Description: α-Glycosidase inhibition assay with pNPG substrate. The data set is classed as biochemical. The following applies: for Ki: Lineweaver–Burk plots, read-out: α-GLY KI; for IC50: mean ± SEM, read-out: α-GLY IC50. How it is done: α-Glucosidase activity (α-Glucosidase from Saccharomyces cerevisiae) was assessed using p-nitrophenyl-D-glycopyranoside (pNPG) as the substrate, following the procedure outlined by Tao et al.[60],[61] Initially, 100 μL of phosphate buffer was mixed with 20 μL of the enzyme solution (0.15 U/mL, pH 6.8) and 10–100 μL (0.01–1 mg/mL^–1) of the sample. To ensure complete enzyme inhibition, multiple solutions were prepared in phosphate buffer. The mixture was preincubated at 35 °C for 12 min before the reaction was initiated by adding pNPG. Subsequently, 50 μL of pNPG solution (5.0 mM, pH 7.4) was added and incubated at 37 °C. Absorbance was measured spectrophotometrically at 405 nm.
Furthermore, the types of inhibition and inhibition constants (KI) were calculated from Lineweaver–Burk plots, providing detailed insights into the kinetic properties of these inhibitors.[62],[63]

A further data set deals with S. typhimurium TA 98. The data set can be described thus: Ames II mutagenicity test, TA 98. It is filed as cell-based, Salmonella typhimurium. The method, then: (§1) Ames II Mutagenicity Assay Kit BioReliance and Moltox (Moltox, Boone, NC) kit were used in the experiment and the experiment was performed completely according to the kit procedure.[68]S. typhimurium TA 98 (hisD3052) and TA mix (hisG1775, hisC9138, hisG9074, hisG9133, hisG9130, hisC9070) strains were incubated in 50 mL tubes containing 10 mL growth medium at 37 °C for 24 h. At the end of the time, the OD600 value of the suspension was measured. Since the OD600 value ≥ 2.0, the experimental procedure was continued. The dilutions of 10 μL of compound 6h at 75, 37.5, 18.75, 9.4, 4.7 μM and compound 6o at […] were prepared at 5 different concentrations of the test substances dissolved in DMSO. The exposure plates (24 wells) with and without the S9 enzyme fraction were prepared for both strains. The exposure medium, bacteria, and test substance were added to the plates without S9 enzyme fraction in the amounts specified in the procedure; S9 enzyme fraction was added to the plates containing S9 enzyme fraction and incubated at 37 °C, 250 rpm for 90 min with shaking. At the end of the incubation period, […] of purple colored indicator medium specific for bacterial strains was added to each well of the plate. 4-Nitroquinoline-N-Oxide (4-NQO) - 2-Nitrofluorene (2-NF), and 2-Aminoanthracene (2-AA) were used as positive control and only DMSO was used as negative control. The contents of 50 μL in each well were transferred to 384 plates according to the determined experimental design and incubated at 37 °C for 48 h. At the end of the incubation period, bacterial metabolism in the plates changes the pH and changes the purple color to yellow. The number of yellow wells formed at the end of the experiment was determined as positive wells and the genotoxic properties of the substances were interpreted. Means and SD values of positive wells were calculated.[69]

A further data set concerns S. typhimurium TA mix. The data set can be described thus: Ames II mutagenicity test, TA mix. The data set is classed as cell-based, Salmonella typhimurium. Particulars: for Average number of the positive wells: TA Mix; for mutagenicity: TA mix strain. How it is done:
as §1

For the molecule `CC(C)CNc1nnc(SCC(=O)N(Cc2ccc([N+](=O)[O-])cc2)c2ccc(Cl)cc2)s1` [6e, N-(4-Chlororophenyl)-2-[(5-(isobutylamino)-1,3,4-thiadiazol-2-yl)thio]-N-(4-nitrobenzyl) Acetamide], in data set [1], the inhibition constant Ki came to 96.5 ± 6.15 µM and the IC50 came to 99 ± 7.37 µM.
Turning to `CC(C)Nc1nnc(SCC(=O)N(Cc2ccc([N+](=O)[O-])cc2)c2ccc(F)cc2)s1` [6l, N-(4-Fluorophenyl)-2-[(5-(isopropylamino)-1,3,4-thiadiazol-2-yl)thio]-N-(4-nitrobenzyl)acetamide], the concentration for half-maximal inhibition (IC50) in data set [1] was > 500 µM.
The same measure, in the same setting: the result for `CCCCNc1nnc(SCC(=O)N(Cc2ccc([N+](=O)[O-])cc2)c2ccc(F)cc2)s1` [6m, N-(4-Fluorophenyl)-2-[(5-(butylamino)-1,3,4-thiadiazol-2-yl)thio]-N-(4-nitrobenzyl) Acetamide] reads > 500 µM.
Turning to `CCNc1nnc(SCC(=O)N(Cc2ccc([N+](=O)[O-])cc2)c2ccc(Cl)cc2)s1` [6a, N-(4-Chlororophenyl)-2-[(5-(ethylamino)-1,3,4-thiadiazol-2-yl)thio]-N-(4-nitrobenzyl) Acetamide], in data set [1], the Ki is 11.9 ± 0.62 µM and the IC50 was found to be 12.6 ± 0.75 µM.
As for `CCCNc1nnc(SCC(=O)N(Cc2ccc([N+](=O)[O-])cc2)c2ccc(F)cc2)s1` [6k, N-(4-Fluorophenyl)-2-[(5-(propylamino)-1,3,4-thiadiazol-2-yl)thio]-N-(4-nitrobenzyl) Acetamide], in data set [1], the IC50 is > 500 µM.
On to `COCCNc1nnc(SCC(=O)N(Cc2ccc([N+](=O)[O-])cc2)c2ccc(F)cc2)s1` [6j, N-(4-Fluorophenyl)-2-[(5-((2-methoxyethyl)amino)-1,3,4-thiadiazol-2-yl)thio]-N-(4-nitrobenzyl) Acetamide], for which, in data set [1], the inhibition constant Ki was 15.9 ± 0.92 µM and the half-maximal inhibitory concentration (IC50) was found to be 16.5 ± 0.93 µM.
Regarding `Cc1ccc(Nc2nnc(SCC(=O)N(Cc3ccc([N+](=O)[O-])cc3)c3ccc(F)cc3)s2)cc1` [6q, N-(4-Fluorophenyl)-2-[(5-(4-methylphenylamino)-1,3,4-thiadiazol-2-yl)thio]-N-(4-nitrobenzyl) Acetamide], in data set [1], the inhibitory constant (Ki) turned out to be 7.86 ± 0.62 µM and the IC50 worked out at 8.15 ± 0.48 µM.
For the molecule `Cc1ccc(Nc2nnc(SCC(=O)N(Cc3ccc([N+](=O)[O-])cc3)c3ccc(Cl)cc3)s2)cc1` [6h, N-(4-Chlororophenyl)-2-[(5-(4-methylphenylamino)-1,3,4-thiadiazol-2-yl)thio]-N-(4-nitrobenzyl) Acetamide], the Ki in data set [1] was 4.48 ± 0.25 µM. For the same molecule, the IC50 in data set [1] stood at 4.68 ± 0.23 µM. Besides, the “Average number of the positive wells” value in the data set on S. typhimurium TA 98 (TA 98, S9+, 4.7 μM) was 0; in the data set on S. typhimurium TA 98 (TA 98, S9+, 9.4 μM) it was 0; in the data set on S. typhimurium TA 98 (TA 98, S9+, 18.75 μM), 0; in the data set with S. typhimurium TA 98 (TA 98, S9+, 37.5 μM) it was 0; with S. typhimurium TA 98 (TA 98, S9+, 75 μM) it was 0; in the data set with S. typhimurium TA 98 (TA 98, S9–, 4.7 μM), 0. Further, the “Average number of the positive wells” value in the data set with S. typhimurium TA 98 (TA 98, S9–, 9.4 μM) is recorded as 0; in the data set on S. typhimurium TA 98 (TA 98, S9–, 18.75 μM), 0; with S. typhimurium TA 98 (TA 98, S9–, 37.5 μM), 0; in the data set on S. typhimurium TA 98 (TA 98, S9–, 75 μM), 0; in the data set on S. typhimurium TA mix (S9+, 4.7 μM), 0; in the data set with S. typhimurium TA mix (S9+, 9.4 μM) it was 0. In addition, the “Average number of the positive wells” value is recorded as 0 with S. typhimurium TA mix (S9+, 18.75 μM); 0 with S. typhimurium TA mix (S9+, 37.5 μM); 8 in the data set with S. typhimurium TA mix (S9+, 75 μM); 0 with S. typhimurium TA mix (S9–, 4.7 μM); 0 in the data set on S. typhimurium TA mix (S9–, 9.4 μM); 0 with S. typhimurium TA mix (S9–, 18.75 μM). The “Average number of the positive wells” value with S. typhimurium TA mix (S9–, 37.5 μM) is 0; in the data set on S. typhimurium TA mix (S9–, 75 μM), 5. Also, the mutagenicity result in the data set on S. typhimurium TA mix (presence and absence of S9, 75 μM) is reported as “mutagenicity was detected”.
Turning to `O=C(CSc1nnc(NC2CCCCC2)s1)N(Cc1ccc([N+](=O)[O-])cc1)c1ccc(Cl)cc1` [6f, N-(4-Chlororophenyl)-2-[(5-(cyclohexylamino)-1,3,4-thiadiazol-2-yl)thio]-N-(4-nitrobenzyl) Acetamide], in data set [1], the Ki was 342 ± 22.4 µM and the IC50 was determined as 347 ± 18.3 µM.
Take `Nc1ccc2cc3ccccc3cc2c1` [2-AA, 2-Aminoanthracene, reference compound]: the “Average number of the positive wells” value in the data set on S. typhimurium TA 98 (TA 98, S9+, positive control) was 16; with S. typhimurium TA 98 (TA 98, S9–, positive control), 16; in the data set on S. typhimurium TA mix (S9+, positive control), 16; in the data set with S. typhimurium TA mix (S9–, positive control) it was 16.
As for `O=C(CSc1nnc(NC2CCCCC2)s1)N(Cc1ccc([N+](=O)[O-])cc1)c1ccc(F)cc1` [6o, N-(4-Fluorophenyl)-2-[(5-(cyclohexylamino)-1,3,4-thiadiazol-2-yl)thio]-N-(4-nitrobenzyl)acetamide], the inhibition constant (Ki) in data set [1] is 12.5 ± 1.08 µM. Moreover, the concentration for half-maximal inhibition (IC50) in data set [1] was 34.6 ± 1.78 µM. Further, the “Average number of the positive wells” value came to 0 with S. typhimurium TA 98 (TA 98, S9+, 3.125 nM); 0 in the data set on S. typhimurium TA 98 (TA 98, S9+, 6.25 nM); 0 with S. typhimurium TA 98 (TA 98, S9+, 12.5 nM); 0 in the data set on S. typhimurium TA 98 (TA 98, S9+, 25 nM); 0 with S. typhimurium TA 98 (TA 98, S9+, 50 nM); 0 with S. typhimurium TA 98 (TA 98, S9–, 3.125 nM). Moreover, the “Average number of the positive wells” value turned out to be 0 in the data set with S. typhimurium TA 98 (TA 98, S9–, 6.25 nM); 0 in the data set on S. typhimurium TA 98 (TA 98, S9–, 12.5 nM); 0 in the data set with S. typhimurium TA 98 (TA 98, S9–, 25 nM); 0 in the data set with S. typhimurium TA 98 (TA 98, S9–, 50 nM); 0 in the data set on S. typhimurium TA mix (S9+, 3.125 nM); 0 in the data set on S. typhimurium TA mix (S9+, 6.25 nM). Moreover, the “Average number of the positive wells” value with S. typhimurium TA mix (S9+, 12.5 nM) is 0; in the data set with S. typhimurium TA mix (S9+, 25 nM) it was 0; with S. typhimurium TA mix (S9+, 50 nM), 15.3; in the data set on S. typhimurium TA mix (S9–, 3.125 nM), 0; in the data set with S. typhimurium TA mix (S9–, 6.25 nM), 0; in the data set on S. typhimurium TA mix (S9–, 12.5 nM), 0. For the same molecule, the “Average number of the positive wells” value in the data set on S. typhimurium TA mix (S9–, 25 nM) is 0; in the data set with S. typhimurium TA mix (S9–, 50 nM), 15.3. Besides, in the data set with S. typhimurium TA mix (presence and absence of S9, 50 nM), the mutagenicity result is listed as “mutagenicity was detected”.
For `O=C(CSc1nnc(Nc2ccccc2)s1)N(Cc1ccc([N+](=O)[O-])cc1)c1ccc(F)cc1` [6p, N-(4-Fluorophenyl)-2-[(5-(phenylamino)-1,3,4-thiadiazol-2-yl)thio]-N-(4-nitrobenzyl)acetamide], in data set [1], the Ki worked out at 8.38 ± 0.12 µM and the IC50 worked out at 8.25 ± 0.56 µM.
